Results: publication PMC10618370, “Mur ligase F as a new target for the flavonoids quercitrin, myricetin, and (–)-epicatechin” (Journal of Computer-Aided Molecular Design, 2023)
Entries after “also recorded” stand apart in the source; their conditions may differ.

Legend:
E. coli MurC = E. coli MurC (Escherichia coli, UniProt P17952); test: MurC inhibition assay (Malachite green); type: biochemical; settings: 0.25 h; residual activity at 100 µM compound; mean ± SD of three independent experiments; read-out: RA (%) @ 100 µM MurC
Description: (§1) Inhibition of the Mur ligases was determined using the Malachite green assay, with slight modifications. […] In all cases, the final concentration of DMSO was 5% (v/v).
(§2) After incubation for 15 min at 37 °C, the enzyme reaction was terminated by the addition of 100 µM Biomol green reagent®, and the absorbance was measured at 650 nm after 5 min. Experiments to determine the RA run in triplicate. Residual activities were calculated with respect to control assays without the tested compounds, but with the 5% DMSO carrier. The IC50 values were determined by measuring the residual activities at seven different compound concentrations, and they represent the concentration of the compound at which the residual activity was 50%. IC50 values were obtained by plotting the residual enzyme activities against the applied inhibitor concentrations, fitting the experimental data to the 4-parameter Hill equation: Y=Bottom-Top-Bottom/1+10^logIC50-X×HillSlope , where X is the logarithm of the inhibitor concentration, and Y is the residual activity. The IC50 values were determined in three independent experiments. GraphPad Prism 8.2.0 (GraphPad Software, San Diego, CA, USA) was used for the fitting procedure.
(§3) The assay detects the phosphate formed in each enzyme reaction. To avoid any possibility of the compounds inhibiting the enzymes due to aggregation, a detergent (0.005% Triton-X114) was added to the test system.

E. coli (ATCC 25,922) = test: Antibacterial assay, broth microdilution MIC; type: cell-based; settings: broth microdilution; for MIC: Escherichia coli, ATCC25, 20 h at 35 °C, read-out: MIC E.coli
Description: (§4) Antimicrobial testing was performed by the broth microdilution method in 96-well plates following the Clinical and Laboratory Standards Institute guidelines and European Committee on Antimicrobial Susceptibility Testing recommendations (Clinical and Laboratory Standards Institute). Bacterial suspensions equivalent to 0.5 McFarland turbidity standard were diluted with cation-adjusted Mueller–Hinton broth with TES buffering (ThermoFisher Scientific), for a final inoculum of 10^5 CFU/ mL. Compounds dissolved in DMSO and the inoculum were mixed and incubated for 20 h at 35 °C. […] The MICs were determined against two reference bacterial strains, S. aureus (ATCC 29,213) and E. coli (ATCC 25,922). Tetracycline was used as the positive control on every assay plate, with MICs of 0.5 and 1 µg/mL for S. aureus and E. coli, respectively. All MICs were determined in three independent experiments.

S. aureus (ATCC 29,213) = test: Antibacterial assay, broth microdilution MIC; type: cell-based; settings: broth microdilution; for MIC: Staphylococcus aureus, ATCC29, 20 h at 35 °C, read-out: MIC S.aureus
Description: as §4

E. coli MurD = E. coli MurD (Escherichia coli, UniProt P14900); test: MurD inhibition assay (Malachite green); type: biochemical; settings: 0.25 h; residual activity at 100 µM compound; mean ± SD of three independent experiments; read-out: RA (%) @ 100 µM MurD
Description: as §1, §2, §3

E. coli MurF = E. coli MurF (Escherichia coli, UniProt P11880); test: MurF inhibition assay (Malachite green); type: biochemical; settings: seven compound concentrations, 4-parameter Hill fit; three independent experiments
Description: as §1, §2, §3

E. coli MurE = E. coli MurE (Escherichia coli, UniProt P22188); test: MurE inhibition assay (Malachite green); type: biochemical
Description: as §1, §2, §3

[1] = Solubility under the Mur ligase assay conditions; type: physicochemical
MurF from E. coli = MurF from E. coli (Escherichia coli, UniProt P11880); test: Steady-state kinetic analysis of compound 21; type: biochemical
Description: For compound 21, Ki values were determined against MurF from E. coli. Ki determinations were performed under similar conditions to those described for the inhibition assay, where the different concentrations of one substrate and a fixed concentration of the other two were used. First, the concentration of UM3DAP was varied (25, 50, 100, 200 µM) at fixed ATP (500 µM) and D-Ala-D-Ala (600 µM)), then the concentration of D-Ala-D-Ala was varied (50, 100, 200, 400, 600 µM) at fixed ATP (500 µM) and UM3DAP (100 µM), and finally, the concentration of ATP was varied (50, 100, 350, 500 µM) at fixed UM3DAP (100 µM) and D-Ala-D-Ala (600 µM). The concentrations of 21 were 0, 25, 50, 75, 100, 200, 350 and 500 µM and the concentration of the MurF was 20 nM. After a 15 min incubation, 100 µM Biomol green reagent® was added, and the absorbance was read at 650 nm after 5 min. All experiments were run in triplicate.
The data were analysed using the SigmaPlot 12.0 software. The initial velocities were fitted to competitive, non-competitive, uncompetitive and mixed enzyme inhibition. The Ki and mode of inhibition from the best ranking model were used, as provided by the software.

Chain of MurF from E. coli (P11880 whole entry): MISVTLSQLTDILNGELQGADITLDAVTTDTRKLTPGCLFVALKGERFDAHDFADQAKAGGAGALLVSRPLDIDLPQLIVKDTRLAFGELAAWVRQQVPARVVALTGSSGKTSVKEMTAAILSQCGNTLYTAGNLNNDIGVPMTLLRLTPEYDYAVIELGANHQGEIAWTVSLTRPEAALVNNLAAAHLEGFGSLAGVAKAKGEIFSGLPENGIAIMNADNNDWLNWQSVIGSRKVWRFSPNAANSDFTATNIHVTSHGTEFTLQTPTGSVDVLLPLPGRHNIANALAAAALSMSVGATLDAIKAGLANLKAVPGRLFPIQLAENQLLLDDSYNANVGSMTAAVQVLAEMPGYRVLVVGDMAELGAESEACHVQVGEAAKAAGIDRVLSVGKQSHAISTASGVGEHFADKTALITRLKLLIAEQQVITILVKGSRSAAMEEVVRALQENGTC
Chain of E. coli MurF (P11880 whole entry): as above
Chain of E. coli MurC (P17952 whole entry): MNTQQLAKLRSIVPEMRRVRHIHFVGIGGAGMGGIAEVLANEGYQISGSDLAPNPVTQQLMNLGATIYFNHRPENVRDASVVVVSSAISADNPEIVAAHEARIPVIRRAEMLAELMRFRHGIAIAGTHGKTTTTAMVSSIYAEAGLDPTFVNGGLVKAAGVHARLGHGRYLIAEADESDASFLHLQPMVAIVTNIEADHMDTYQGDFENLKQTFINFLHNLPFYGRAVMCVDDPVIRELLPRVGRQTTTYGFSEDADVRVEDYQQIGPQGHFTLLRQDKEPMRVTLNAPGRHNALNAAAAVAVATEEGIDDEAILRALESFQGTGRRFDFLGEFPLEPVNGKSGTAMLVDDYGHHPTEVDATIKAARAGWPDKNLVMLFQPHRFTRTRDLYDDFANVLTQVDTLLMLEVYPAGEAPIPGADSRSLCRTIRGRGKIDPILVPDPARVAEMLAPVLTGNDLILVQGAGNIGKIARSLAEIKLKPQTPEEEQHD
Chain of E. coli MurE (P22188 whole entry): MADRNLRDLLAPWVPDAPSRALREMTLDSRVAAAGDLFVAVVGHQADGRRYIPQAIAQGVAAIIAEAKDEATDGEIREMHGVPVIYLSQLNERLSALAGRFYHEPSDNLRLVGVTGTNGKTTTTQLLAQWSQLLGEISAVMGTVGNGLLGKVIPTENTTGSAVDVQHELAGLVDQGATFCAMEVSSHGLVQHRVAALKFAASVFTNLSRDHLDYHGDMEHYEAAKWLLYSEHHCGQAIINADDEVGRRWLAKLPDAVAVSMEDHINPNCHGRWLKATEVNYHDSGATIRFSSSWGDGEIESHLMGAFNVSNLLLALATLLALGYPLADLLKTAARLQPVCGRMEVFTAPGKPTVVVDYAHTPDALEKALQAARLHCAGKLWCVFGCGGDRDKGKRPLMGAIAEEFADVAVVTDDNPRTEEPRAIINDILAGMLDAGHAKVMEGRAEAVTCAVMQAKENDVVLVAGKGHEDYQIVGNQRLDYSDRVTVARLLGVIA
Chain of E. coli MurD (P14900 whole entry): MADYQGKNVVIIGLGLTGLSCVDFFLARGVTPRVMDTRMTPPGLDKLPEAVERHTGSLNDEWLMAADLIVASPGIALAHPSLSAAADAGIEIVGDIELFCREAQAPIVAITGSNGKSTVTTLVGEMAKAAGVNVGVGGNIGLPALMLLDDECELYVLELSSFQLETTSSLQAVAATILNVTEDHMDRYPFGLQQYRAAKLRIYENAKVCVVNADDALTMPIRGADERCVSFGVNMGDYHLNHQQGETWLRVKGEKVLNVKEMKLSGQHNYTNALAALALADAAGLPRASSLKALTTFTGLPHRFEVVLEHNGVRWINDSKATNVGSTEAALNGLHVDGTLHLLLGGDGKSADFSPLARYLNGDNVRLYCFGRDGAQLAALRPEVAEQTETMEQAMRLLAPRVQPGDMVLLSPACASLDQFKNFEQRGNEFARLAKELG

Oc1cc(O)c2c(c1)O[C@H](c1ccc(O)c(O)c1)[C@@H](O)[C@H]2O [Compound 20, Leucocyanidin]
remaining activity at 100 µM (E. coli MurC): 95 ± 8%
MIC (E. coli (ATCC 25,922)): > 250 µM
MIC (S. aureus (ATCC 29,213)): > 250 µM
remaining activity at 100 µM (E. coli MurD): 91 ± 9%
IC50 (E. coli MurF): 28 ± 8 µM
IC50 (E. coli MurE; seven compound concentrations, 4-parameter Hill fit, three independent experiments): 164 ± 14 µM
Solubility under the assay conditions (in words) [1]: poor solubility

Oc1cc(O)c2c(c1)O[C@H](c1ccc(O)c(O)c1)[C@H](O)C2 [Compound 21, (–)-epicatechin]
remaining activity at 100 µM (E. coli MurC): 92 ± 8%
MIC (E. coli (ATCC 25,922)): > 250 µM
Inhibition of growth of E. coli (in words) (E. coli (ATCC 25,922)): inactive
MIC (S. aureus (ATCC 29,213)): > 250 µM
Inhibition of growth of S. aureus (in words) (S. aureus (ATCC 29,213)): inactive
remaining activity at 100 µM (E. coli MurD): 94 ± 9%
IC50 (E. coli MurF): 92 ± 13 µM
Ki (MurF from E. coli; substrate ATP varied, UM3DAP 100 µM, D-Ala-D-Ala 600 µM fixed): 28.5 ± 2.7 µM
Ki (MurF from E. coli; substrate D-Ala-D-Ala varied, ATP 500 µM, UM3DAP 100 µM fixed): 58.2 ± 5.1 µM
Ki (MurF from E. coli; substrate UM3DAP varied, ATP 500 µM, D-Ala-D-Ala 600 µM fixed): 70.1 ± 4 µM
Mechanism of inhibition (MurF from E. coli; with respect to ATP): mixed inhibition; also recorded: mixed inhibitor; also recorded: Mixed (partial)
α (mixed partial inhibition model) (MurF from E. coli; with respect to ATP): 1.5
β (mixed partial inhibition model) (MurF from E. coli; with respect to ATP): 0.4545
Mechanism of inhibition (MurF from E. coli; with respect to ATP, listed as (–)-epicatechin): mixed type inhibition
Mechanism of inhibition (MurF from E. coli; with respect to D-Ala-D-Ala): uncompetitive inhibitor; also recorded: Uncompetitive (partial)
Mechanism of inhibition (MurF from E. coli; with respect to D-Ala-D-Ala, listed as (–)-epicatechin): uncompetitive inhibition
Mechanism of inhibition (MurF from E. coli; with respect to UM3DAP): uncompetitive inhibitor; also recorded: Uncompetitive (partial)
Mechanism of inhibition (MurF from E. coli; with respect to UM3DAP, listed as (–)-epicatechin): uncompetitive inhibition
remaining activity at 100 µM (E. coli MurE; 0.25 h, residual activity at 100 µM compound, mean ± SD of three independent experiments, read-out: RA (%) @ 100 µM MurE): 79 ± 8%
